Among the data in PubChem BioAssay (NCI) are TGI values, retold here.

The structures appear in SMILES notation.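 Five compound concentrations were applied to cells in 96-well plates for 48 hours; endpoints were derived by simple linear interpolation of the resulting dose-response curve. At the TGI there is no net growth.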 Bounds are passed on as bounds.

Some test systems named below: RPMI-8226 leukemia; IGROV1 ovarian; SR leukemia; MALME-3M melanoma; UACC-62 melanoma; MDA-MB-231 breast; SF-295 CNS; NCI-H522 lung; HS 578T breast; K-562 leukemia.
Assay in all cases: inhibition of tumour cell growth, NCI panel, 48 h

Regarding `COC(=O)c1c(OC(C)=O)ccc2c1c1c(OC(C)=O)c3ccccc3c(OC(C)=O)c1n2Cc1cc(OC)cc(OC)c1`, the TGI in the experiment with RPMI-8226 leukemia was 20.8 µM; in the experiment with IGROV1 ovarian it was more than 100 µM; in the experiment on SR leukemia it was more than 100 µM; with MALME-3M melanoma, 70.6 µM; in the experiment with UACC-62 melanoma, more than 100 µM; with MDA-MB-231 breast, more than 100 µM. Besides, the TGI in the experiment with SF-295 CNS was more than 100 µM; in the experiment on NCI-H522 lung, 9.2 µM; in the experiment with HS 578T breast it was more than 100 µM; in the experiment with K-562 leukemia, more than 100 µM.
